Data: article PMC2913955, “Whole-cell fungal transformation of precursors into dyes” (Microbial Cell Factories, 2010)
In brackets after ≈: the same amount, converted by molar mass. Several values for one entry are separate records, joined by “and”; a condition that tells them apart may be missing. Identical values can stand only once. Marks after values point to notes of the source that are not given here.

Experiments:
[1] = Autoxidation of precursors on agar plates without actively growing mycelium (control samples); format: physicochemical; settings: 1 mM precursor in GPA agar; for Precursors autoxidation: without mycelium; for autoxidation (in words): control samples without mycelium; as to Precursors autoxidation: key: - no; -/+ - slightly; + high; ++ very high
Procedure: (§1) Agar-plate screening of several different precursors, benzoic and naphthalene derivatives was performed using fungal biomass as a biocatalyst (Table 1). Among these precursors were chemicals consisting of amino-, hydroxy-, nitro-, sulfonic- and carboxy- substituents. The ability of the fungi to grow in the presence of the precursors and to transform the latter into coloured products was monitored during 14 days of the experiment. […] In order to check the autoxidation ability of the precursors, the appearance of their coloured products without the presence of actively growing mycelium was monitored (control samples).
(§2) The agar-plate screening test was performed using sterile 24-well tissue culture plates (16.2 mm in diameter). Each well contained 2.5 mL (± 0.2 mL) of sterile GPA medium with the addition of 2% agar and a precursor at a concentration of 1 mM. Each well was inoculated with one agar plug (3 mm in diameter) from the leading edge of colony, which had been maintained on MEA for at least 7 days at 25°C. The plates were incubated at 25°C, and the ability of the fungi to grow and transform the precursors into coloured products was monitored over the next 14 days.

[2] = Cyclic voltammetry of precursors (oxidation and reduction potentials); format: physicochemical; settings: for Eo (oxidation potential) / Er (reduction potential): 1 mM precursor, 100 mM Na-tartrate buffer pH 4.5, graphite working electrode, Ag/AgCl reference; for oxidation and reduction peaks: pH 4.5, scan rates of 25 to 200 mV/s
Procedure: To find correlations between the degree of precursor transformation by fungi and its oxidation potential, cyclic voltammetry (CV) was done. All the tested compounds were characterized using CV at a graphite working electrode at pH 4.5.
Cyclic voltammetry of the tested precursors was performed using an MTM-Anko apparatus type M161 (Poland) equipped with a graphite working electrode, a platinum counter electrode, and an Ag/AgCl reference electrode. The precursors were dissolved using 100 mM Na-tartrate buffer, pH 4.5, to 1 mM final concentration. […] All potentials in this work were referred to the Ag/AgCl reference electrode.

Caco-2 cells = assay: Neutral Red uptake assay (NRU) cytotoxicity; format: cell-based, human; settings: Caco-2, precursor itself; for IC50: Homo sapiens
Procedure: The cytotoxicity of precursors and products was tested using the Neutral Red uptake assay (NRU) with Caco-2 cells (Table 5). The EU classifies a chemical to be not environmentally toxic if the IC50 is above 0.1 mg/mL, which was the case for the selected products as measured with the NRU test. […] In the case of the dyes obtained after transformation of AHBS and ANS by FF25, AB123, or TV7, all the samples had IC50's of more than 1 mg/mL and were essentially non-toxic. In the case of control cultures, growing without the addition of precursors, only the sample of TV7 was slightly toxic (IC50 = 0.85 mg/mL) while other control cultures (AB123, CU139, and FF25) had IC50's higher than one (Table 5).
The toxicity of precursors and products was evaluated using the Neutral Red uptake assay (NRU) with Caco-2 human intestinal cell-line as an in vitro test system. Samples of products were lyophilized and then dissolved in dimethyl sulfoxide (DMSO) to a stock solution concentration of 100 mg/mL. The cytotoxicity of dyes was expressed as the half-maximal inhibitory concentration (IC50 - mg/mL), where values higher than 1 represented low cytotoxicity, values within the range from 0.1 to 1 represented medium cytotoxicity, and values below 0.1 represented high cytotoxicity of samples [10]. Additionally, the cytotoxicity of the fungal liquid culture without precursors and products was checked as a control.

Cerrena unicolor (CU139) = assay: Agar-plate screening test, transformation of precursors into coloured products; format: cell-based; settings: strain CU139, 1 mM precursor
Procedure: as §1
(§3) The colour intensity of the products obtained during the biotransformation of the precursors by fungi was analyzed after 7 days of cultivation. This intensity was expressed by different numbers; the value 0 expressed a lack of colour and the values in the range from 1 to 4 expressed a rising intensity of colour.
as §2

Fomes fomentarius (FF25) = assay: as above; format: cell-based; settings: strain FF25, 1 mM precursor
Procedure: as §1, §3, §2

[3] = tested on: Abortiporus biennis (AB123); assay: as above; format: cell-based; settings: strain AB123, 1 mM precursor
Procedure: as §1, §3, §2

[4] = tested on: Trametes versicolor (TV7); assay: as above; format: cell-based; settings: strain TV7, 1 mM precursor
Procedure: as §1, §3, §2

SMILES	Eo (oxidation potential) ([2]; scan rate 50 mV/s)	Er (reduction potential) ([2]; scan rate 50 mV/s)	Precursors autoxidation [1]	autoxidation (in words) [1]	also measured
Nc1ccc(S(=O)(=O)O)c(N)c1 [2,4DABS, 2,4-diaminobenzenesulfonic acid]	818 mV		-		
Nc1ccc(N)c(S(=O)(=O)O)c1 [2,5DABS, 2,5-diaminobenzenesulfonic acid]	433 mV	-356 mV and -356^a mV	-/+	very slight autoxidation	IC50 (Caco-2 cells): > 1000 mg/L
Nc1cc(S(=O)(=O)O)cc([N+](=O)[O-])c1O [AHNBS, 3-amino-4-hydroxy-5-nitrobenzenesulfonic acid]	579 mV	-92 mV	+	very rapid and very intensive autoxidation	
Oc1ccccc1O [Cat, 1,2-dihydroxybenzene]	548 mV	285 mV	-		
Oc1ccc2ccc(O)cc2c1 [DHN, 2,7-dihydroxynaphtalene]	672 mV		-/+	very slight autoxidation	IC50 Precursor (Caco-2 cells): 107 ± 3.6 mg/L (≈ 668 µM)
Nc1ncccc1O [Precursor 2A3HP, 2-amino-3-hydroxypyridine]	647 mV		-/+	very slight autoxidation	IC50 (Caco-2 cells): 55 ± 28 mg/L (≈ 499 µM)
O=Cc1ccccc1S(=O)(=O)[O-].[Na+] [Precursor 2FBSA, 2-formylbenzenesulfonic acid sodium salt]			-		oxidation and reduction peaks [2]: did not exhibit
O.O.O.O.Oc1ccccc1-c1ccccc1.[Na] [Precursor 2PP, 2-phenylphenol sodium salt tetrahydrate]	790 mV		-		growth of mycelium in the presence of precursor (Cerrena unicolor (CU139)): unable to grow; growth of mycelium in the presence of precursor (Fomes fomentarius (FF25)): unable to grow; growth of mycelium in the presence of precursor [3]: unable to grow; growth of mycelium in the presence of precursor [4]: unable to grow
O.O=C(O)c1cc(S(=O)(=O)O)ccc1O [Precursor 5SSA, 5-sulfosalicylic acid hydrate]			-		oxidation and reduction peaks [2]: did not exhibit
Nc1ccccc1S(=O)(=O)O [Precursor A2SA, aniline-2-sulfonic acid]	1013 mV	-0.5 mV	-		
O=S(=O)(O)c1cc(O)c(O)c(S(=O)(=O)O)c1 [dHBdSA, 4,5-dihydroxy-1,3-benzene-disulfonic acid]			-		Eo (oxidation potential) ([2]; scan rate 25 mV/s): 914^b mV

Second part, led by results:

Eo (oxidation potential) ([2]; scan rate 50 mV/s)	Er (reduction potential) ([2]; scan rate 50 mV/s)	SMILES	Precursors autoxidation [1]	autoxidation (in words) [1]	also measured
518 mV	-103 mV	Nc1cc(S(=O)(=O)O)ccc1O [AHBS, 3-amino-4-hydroxybenzenesulfonic acid]	-		IC50 (Caco-2 cells): > 1000 mg/L
680 mV		Nc1cccc2c(S(=O)(=O)O)cccc12 [ANS, 5-amino-1-naphthalenesulfonic acid]	-		IC50 (Caco-2 cells): > 1000 mg/L
893 mV	-144 mV	O=S(=O)([O-])c1ccc2cc(O)ccc2c1.[Na+] [HNSA, 6-hydroxy-2-naphthalenesulfonic acid sodium salt]	-		
968 mV	5.4^a mV	Nc1cccc(S(=O)(=O)O)c1 [Precursor 3ABS, 3-aminobenzenesulfonic acid]	-		
251 mV		Nc1c(O)cc(S(=O)(=O)O)c2ccccc12 [Precursor 4AHNS, 4-amino-3-hydroxy-1-naphthalenesulfonic acid]	++	very rapid and very intensive autoxidation	
499 mV		Nc1ccc2cc(S(=O)(=O)O)cc(O)c2c1 [Precursor 6AHNS, 6-amino-4-hydroxy-2-naphthalenesulfonic acid]	-/+	very slight autoxidation	
